Consider 16 compounds from patent US9994570B2, “Bridged diazepane orexin receptor antagonists” (MERCK SHARP & DOHME CORP., priority 2014, dated 2018).

Experiment [1] deals with T1, human orexin-2 receptor (Homo sapiens, UniProt O43614).
T1 construct: expressed in transfected cells; host or cells: CHO cells (grown under G418 selection)
T1 sequence (O43614 1-444): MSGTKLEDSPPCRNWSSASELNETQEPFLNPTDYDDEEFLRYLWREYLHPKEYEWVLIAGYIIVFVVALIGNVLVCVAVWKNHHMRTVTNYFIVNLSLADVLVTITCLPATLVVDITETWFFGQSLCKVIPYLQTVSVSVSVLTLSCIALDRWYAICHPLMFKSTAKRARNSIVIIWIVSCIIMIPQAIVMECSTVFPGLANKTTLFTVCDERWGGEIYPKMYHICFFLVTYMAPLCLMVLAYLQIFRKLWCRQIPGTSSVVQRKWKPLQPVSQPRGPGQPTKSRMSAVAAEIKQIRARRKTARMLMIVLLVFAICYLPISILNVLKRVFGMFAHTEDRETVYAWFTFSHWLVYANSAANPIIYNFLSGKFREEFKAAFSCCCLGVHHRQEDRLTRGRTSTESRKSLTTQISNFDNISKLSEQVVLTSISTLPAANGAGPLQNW
In words: FLIPR Ca2+ flux assay, OX2R. The settings on record: for IC50: CHO cells expressing the human orexin-2 receptor, agonist 70 pM Ala-6,12 orexin-A; for Fold Selective: OX1R FLIPR / OX2R FLIPR. Format: cell-based. How it is done: (§1) The utility of the compounds in accordance with the present invention as orexin receptor OX1R and/or OX2R antagonists may be readily determined without undue experimentation by methodology well known in the art, including the “FLIPR Ca^2+ Flux Assay” (Okumura et al., Biochem. Biophys. Res. Comm. 280:976-981, 2001). In a typical experiment the OX1 and OX2 receptor antagonistic activity of the compounds of the present invention was determined in accordance with the following experimental method. For intracellular calcium measurements, Chinese hamster ovary (CHO) cells expressing the rat orexin-1 receptor or the human orexin-2 receptor, are grown in Iscove's modified DMEM containing 2 mM L-glutamine, […], 1% hypoxanthine-thymidine supplement, 100 U/ml penicillin, 100 μg/ml streptomycin and 10% heat-inactivated fetal calf serum (FCS). The cells are seeded at 20,000 cells/well into Becton-Dickinson black 384-well clear bottom sterile plates coated with poly-D-lysine. All reagents were from GIBCO-Invitrogen Corp. The seeded plates are incubated overnight at 37° C. and 5% CO2. Ala-6,12 human orexin-A as the agonist is prepared as a 1 mM stock solution in 1% bovine serum albumin (BSA) and diluted in assay buffer (HBSS containing 20 mM HEPES, 0.1% BSA and 2.5 mM probenecid, pH7.4) for use in the assay at a final concentration of 70 pM. Test compounds are prepared as 10 mM stock solution in DMSO, then diluted in 384-well plates, first in DMSO, then assay buffer. On the day of the assay, cells are washed 3 times with 100 μl assay buffer and then incubated for 60 min (37° C., 5% CO2) in 60 μl assay buffer containing 1 μM Fluo-4AM ester, 0.02% pluronic acid, and 1% BSA. The dye loading solution is then aspirated and cells are washed 3 times with 100 μl assay buffer. 30 μl of that same buffer is left in each well. Within the Fluorescent Imaging Plate Reader (FLIPR, Molecular Devices), test compounds are added to the plate in a volume of 25 μl, incubated for 5 min and finally 25 μl of agonist is added. Fluorescence is measured for each well at 1 second intervals for 5 minutes and the height of each fluorescence peak is compared to the height of the fluorescence peak induced by 70 pM Ala-6,12 orexin-A with buffer in place of antagonist. For each antagonist, IC50 value (the concentration of compound needed to inhibit 50% of the agonist response) is determined. Alternatively, compound potency can be assessed by a radioligand binding assay (described in Bergman et. al. Bioorg. Med. Chem. Lett. 2008, 18, 1425-1430) in which the inhibition constant (Ki) is determined in membranes prepared from CHO cells expressing either the OX1 or OX2 receptor. The intrinsic orexin receptor antagonist activity of a compound which may be used in the present invention may be determined by these assays.
Background: A change in cytosolic calcium serves as a functional read-out for many receptors and channels.

A further experiment addresses T2, rat orexin-1 receptor (Rattus norvegicus, UniProt P56718).
T2 construct: expressed in transfected cells; host or cells: CHO cells (grown under G418 selection)
T2 sequence (P56718 1-416): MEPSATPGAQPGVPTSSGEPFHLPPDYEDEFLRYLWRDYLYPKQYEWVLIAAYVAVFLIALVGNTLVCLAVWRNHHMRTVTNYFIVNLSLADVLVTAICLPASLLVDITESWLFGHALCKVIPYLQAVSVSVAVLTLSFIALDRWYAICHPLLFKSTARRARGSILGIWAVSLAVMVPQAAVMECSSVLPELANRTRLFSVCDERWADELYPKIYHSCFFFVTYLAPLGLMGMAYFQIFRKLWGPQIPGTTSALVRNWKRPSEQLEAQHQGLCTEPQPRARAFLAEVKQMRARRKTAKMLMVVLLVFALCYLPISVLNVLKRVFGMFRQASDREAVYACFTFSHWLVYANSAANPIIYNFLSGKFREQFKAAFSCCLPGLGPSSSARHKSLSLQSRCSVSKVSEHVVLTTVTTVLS
In words: FLIPR Ca2+ flux assay, OX1R. Format: cell-based. The note with it: CHO cells expressing the rat orexin-1 receptor; agonist 70 pM Ala-6,12 orexin-A. How it is done:
as §1

The target in experiment [2] is T1, human orexin-2 receptor. The note with it: comparison compound disclosed in U.S. Pat. No. 8,685,961; cited from earlier work.

Consider `Cc1cc(C)nc(N2CC3CC2CN(C(=O)c2cccnc2OC2CCCC2)C3)n1` (stereo not shown) [Example 38], for which the figures for the IC50 on human orexin-2 receptor [1] and at rat orexin-1 receptor were 23 nM and 1080 nM, respectively. Moreover, the “Fold Selective” value at human orexin-2 receptor [1] worked out at 47.

`Cc1cc(C)nc(N2CC3CC2CN(C(=O)c2cccnc2OCC2CC2)C3)n1` (stereo not shown) [Example 39, 3-{[2-(cyclopropyl-methoxy)pyridin-3-yl]carbonyl}-6-(4,6-dimethylpyrimidin-2-yl)-3,6-diazabicyclo-[3.2.1]octane]: at human orexin-2 receptor [1], the IC50 worked out at 13 nM and the “Fold Selective” value came out at 106. At rat orexin-1 receptor, this compound yielded an IC50 of 1370 nM.

As to `Cc1cc(C)nc(N2CC3CC2CN(C(=O)c2cccnc2OCC(C)C)C3)n1` (stereo not shown) [Example 40, 6-(4,6-dimethyl-pyrimidin-2-yl)-3-{[2-(2-methylpropoxy)pyridin-3-yl]carbonyl}-3,6-diazabicyclo[3.2.1]octane], the IC50 at human orexin-2 receptor [1] is 16 nM; at rat orexin-1 receptor it was 648 nM. The “Fold Selective” value on human orexin-2 receptor [1] was determined as 41.

With `Cc1cc(C)nc(N2CC3CC2CN(C(=O)c2cccnc2OCC2CC2(F)F)C3)n1` (stereo not shown) [Example 41, 3-({2-[(2,2-difluorocyclopropyl)methoxy]pyridin-3-yl}carbonyl)-6-(4,6-dimethylpyrimidin-2-yl)-3,6-diazabicyclo[3.2.1]octane], on human orexin-2 receptor [1], the IC50 came to 12 nM and the “Fold Selective” value is on record as 49. The same compound returned a half-inhibitory concentration (IC50) at rat orexin-1 receptor of 584 nM.

Turning to `Cc1cc(C)nc(N2CC3CC2CN(C(=O)c2cccnc2OCC2CCC2)C3)n1` (stereo not shown) [Example 42, 3-{[2-(cyclobutylmethoxy)pyridin-3-yl]carbonyl}-6-(4,6-dimethylpyrimidin-2-yl)-3,6-diazabicyclo[3.2.1]octane], at human orexin-2 receptor [1], the IC50 was 15 nM and the “Fold Selective” value was determined as 42. This compound yielded a 50% inhibitory concentration (IC50) at rat orexin-1 receptor of 628 nM.

As for `Cc1cc(C)nc(N2CC3CC2CN(C(=O)c2cccnc2OCC(F)(F)C(F)F)C3)n1` (stereo not shown) [Example 43, 6-(4,6-dimethylpyrimidin-2-yl)-3-{[2-(2,2,3,3-tetrafluoropropoxy)pyridin-3-yl]carbonyl}-3,6-diazabicyclo[3.2.1]octane], the IC50 at human orexin-2 receptor [1] came out at 5 nM; on rat orexin-1 receptor it was 206 nM. For the same compound, at human orexin-2 receptor [1], the “Fold Selective” value is 41.

On to `Cc1cc(C)nc(N2CC3CC2CN(C(=O)c2cccnc2OCCC(F)(F)F)C3)n1` (stereo not shown) [Example 44, 6-(4,6-dimethylpyrimidin-2-yl)-3-{[2-(3,3,3-trifluoropropoxy)pyridin-3-yl]carbonyl}-3,6-diazabicyclo[3.2.1]octane], for which the IC50 at human orexin-2 receptor [1] came out at 21 nM; at rat orexin-1 receptor it was 932 nM. In addition, the “Fold Selective” value on human orexin-2 receptor [1] was 44.

In the case of `Cc1cc(C)nc(N2CC3CC2CN(C(=O)c2cccnc2OCC(C)O)C3)n1` (stereo not shown) [Example 45, 1-[(3-{[6-(4,6-dimethylpyrimidin-2-yl)-3,6-diazabicyclo[3.2.1]oct-3-yl]carbonyl}pyridin-2-yl)oxy]propan-2-ol], the IC50 at human orexin-2 receptor [1] is 90 nM; at rat orexin-1 receptor, greater than 10000 nM. Moreover, the “Fold Selective” value on human orexin-2 receptor [1] is greater than 111.

In the case of `CO[C@@H]1CCN(c2ncccc2C(=O)N2CC3CC(C2)N(c2nc(C)cc(C)n2)C3)C1` (stereo partly drawn) [Example 46, (6-(4,6-dimethylpyrimidin-2-yl)-3,6-diazabicyclo[3.2.1]octan-3-yl)(2-((R)-3-methoxypyrrolidin-1-yl)pyridin-3-yl)methanone], at human orexin-2 receptor [1], the IC50 amounted to 90 nM and the “Fold Selective” value is greater than 111. Also, the IC50 on rat orexin-1 receptor was greater than 10000 nM.

As to `Cc1cc(C)nc(N2CC3CC2CN(C(=O)c2nccnc2OCC2CC2)C3)n1` (stereo not shown) [Example 48, (3-(cyclopropylmethoxy)pyrazin-2-yl)(6-(4,6-dimethylpyrimidin-2-yl)-3,6-diazabicyclo[3.2.1]octan-3-yl)methanone], on human orexin-2 receptor [1], the IC50 turned out to be 37 nM and the “Fold Selective” value worked out at 103. For the same compound, at rat orexin-1 receptor, the IC50 came to 3830 nM.

As to `Cc1cc(C)nc(N2CC3CC2CN(C(=O)c2nccnc2OCC(F)F)C3)n1` (stereo not shown) [Example 49, 3-{[3-[2,2-difluoroethoxy)pyrazin-2-yl]carbonyl}-6-(4,6-dimethylpyrimidin-2-yl)-3,6-diazabicyclo[3.2.1]octane], the IC50 on human orexin-2 receptor [1] worked out at 33 nM; at rat orexin-1 receptor it was 3860 nM. The “Fold Selective” value on human orexin-2 receptor [1] is 117.

In the case of `Cc1cc(C)nc(N2CC3CC2CN(C(=O)c2nccnc2OCC(F)(F)F)C3)n1` (stereo not shown) [Example 50, 6-(4,6-dimethylpyrimidin-2-yl)-3-{[3-(2,2,2-trifluoroethoxy)pyrazin-2-yl]carbonyl}-3,6-diazabicyclo[3.2.1]octane], at human orexin-2 receptor [1], the IC50 was determined as 36 nM and the “Fold Selective” value is greater than 278. Also, at rat orexin-1 receptor, the IC50 is greater than 10000 nM.

As to `Cc1cc(C)nc(N2CC3CC2CN(C(=O)c2nccnc2OCC(F)(F)C(F)F)C3)n1` (stereo not shown) [Example 51, (6-(4,6-dimethylpyrimidin-2-yl)-3,6-diazabicyclo[3.2.1]octan-3-yl)(3-(2,2,3,3-tetrafluoropropoxy)pyrazin-2-yl)methanone], on human orexin-2 receptor [1], the IC50 is 24 nM and the “Fold Selective” value was 112. On rat orexin-1 receptor, this compound yielded an IC50 of 2690 nM.

For `Cc1cc(C)nc(N2CC3CC2CN(C(=O)c2nccnc2OC(C)C)C3)n1` (stereo not shown) [Example 52, 6-(4,6-dimethylpyrimidin-2-yl)-3-{[3-(1-methylethoxy)pyrazin-2-yl]carbonyl}-3,6-diazabicyclo[3.2.1]octane], at human orexin-2 receptor [1], the IC50 amounted to 60 nM and the “Fold Selective” value is on record as greater than 167. The IC50 on rat orexin-1 receptor is greater than 10000 nM.

For `Cc1cc(C)nc(N2CC3CC2CN(C(=O)c2nccnc2OCC(C)(F)F)C3)n1` (stereo not shown) [Example 53, (3-(2,2-difluoropropoxy)pyrazin-2-yl)(6-(4,6-dimethylpyrimidin-2-yl)-3,6-diazabicyclo[3.2.1]octan-3-yl)methanone], on human orexin-2 receptor [1], the IC50 was 39 nM and the “Fold Selective” value is 165. Besides, at rat orexin-1 receptor, the IC50 was found to be 6450 nM.

With `Cc1ccc(-n2nccn2)c(C(=O)N2CCCN(c3nc4ccccc4o3)CC2)c1` [Example B-3], the “selectivity between the orexin-1 receptor and the orexin-2 receptor” value on human orexin-2 receptor [2] is given as “greater selectivity for the orexin-1 receptor than for the orexin-2 receptor”.

One may read the IC50 as the concentration that inhibits the measured activity by half. The low end stands for greater potency in that assay, the high end for weaker potency in that assay.
